Patent US20100099756A1, “USES OF INCENSOLE, INCENSOLE ACETATE AND DERIVATIVES THEREOF” (YISSUM RESEARCH DEVELOPMENT COMPANY OF THE HEBREW …, priority 2006, published 2010)

How the values were obtained:
[1] = tested on: receptors known to be involved in psychoactivity; assay: Interaction with receptors involved in psychoactivity
[2] = tested on: immobility; assay: Porsolt forced swimming test; format: in vivo, female Sabra mice; conditions: recorded over 9 minutes, 50 mg/kg i.p.
[3] = target: TRPV1 (Homo sapiens, UniProt Q8NER1); assay: Whole-cell voltage-clamp, TRPV1(+) cells; format: cell-based; conditions: IA 200 μM
Chain of TRPV1 (Q8NER1 whole entry): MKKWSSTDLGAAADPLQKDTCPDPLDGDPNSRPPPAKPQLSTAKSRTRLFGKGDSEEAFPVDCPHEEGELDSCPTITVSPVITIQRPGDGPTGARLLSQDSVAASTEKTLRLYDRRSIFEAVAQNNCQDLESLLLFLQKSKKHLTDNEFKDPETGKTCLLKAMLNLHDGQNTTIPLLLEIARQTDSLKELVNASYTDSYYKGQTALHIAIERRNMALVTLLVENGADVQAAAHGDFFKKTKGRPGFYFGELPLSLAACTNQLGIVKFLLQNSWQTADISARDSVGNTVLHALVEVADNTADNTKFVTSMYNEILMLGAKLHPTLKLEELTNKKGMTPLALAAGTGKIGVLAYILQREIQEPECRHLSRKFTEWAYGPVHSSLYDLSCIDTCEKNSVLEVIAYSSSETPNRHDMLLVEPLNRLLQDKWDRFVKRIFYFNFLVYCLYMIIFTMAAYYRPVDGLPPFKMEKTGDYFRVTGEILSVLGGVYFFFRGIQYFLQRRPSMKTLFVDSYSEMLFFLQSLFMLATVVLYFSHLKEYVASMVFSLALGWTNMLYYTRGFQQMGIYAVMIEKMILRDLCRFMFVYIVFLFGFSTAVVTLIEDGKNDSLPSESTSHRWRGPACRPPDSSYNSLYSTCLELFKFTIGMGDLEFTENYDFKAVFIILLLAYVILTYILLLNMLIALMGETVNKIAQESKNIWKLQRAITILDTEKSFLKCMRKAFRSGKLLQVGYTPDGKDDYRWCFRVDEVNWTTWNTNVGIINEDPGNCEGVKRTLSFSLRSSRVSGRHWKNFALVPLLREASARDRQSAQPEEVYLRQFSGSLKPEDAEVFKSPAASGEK
Procedure: TRPV3(+) response to IA is shown for reference. *, p<0.001. Error bars represent SEM, n=4-5.
(§1) Electrophysiological recording. Currents were recorded using whole-cell voltage-clamp. Pipettes were pulled from microcapillary glass (A-M Systems). A coverslip containing cells was transferred to a 300 μL chamber that was constantly perfused (1-2 mL/min) with external solution. Voltage protocols were generated and data were digitized and recorded using Pulse (HEKA Elektronik) software in conjunction with an Axopatch 200A amplifier (Axon Instruments), and the data analyzed using an in-house Visual Basic (Microsoft) analysis program.
(§2) The pipette solution contained (in mM): 121.5 Kgluconate, 10 HEPES, 17 KCl, 9 NaCl, 1 MgCl2, 0.2 EGTA, 2 MgATP, and 0.5 NaATP, pH 7.2. The external solution contained (in mM): 120 NaCl, 5 KCl, 1 MgCl2, 2 CaCl2, 10 Glucose and 20 HEPES, pH 7.4 with NaOH. The measured charge (pC) was defined as the charge elicited between -85 and -45 mV by a ramping voltage stimulus (−85 mV to +35 mV, 0.54 mV/msec; holding potential -55 mV). Currents were sampled at 5 kHz. Experimental and control cells were alternated whenever possible. Control values were obtained from adjacent cells with no detectable YFP fluorescence, presumed to be non-TRPV3-expressing.

[4] = target: T1, mouse TRPV3-YFP (Mus musculus, UniProt Q8K424); assay: Whole-cell voltage-clamp, TRPV3-YFP expressing HEK293 cells; format: cell-based; conditions: IA 200 μM; 2-APB 100 μM; charge −85 to −45 mV
T1 construct: expressed in transfected cells
T1 sequence (Q8K424 1-791): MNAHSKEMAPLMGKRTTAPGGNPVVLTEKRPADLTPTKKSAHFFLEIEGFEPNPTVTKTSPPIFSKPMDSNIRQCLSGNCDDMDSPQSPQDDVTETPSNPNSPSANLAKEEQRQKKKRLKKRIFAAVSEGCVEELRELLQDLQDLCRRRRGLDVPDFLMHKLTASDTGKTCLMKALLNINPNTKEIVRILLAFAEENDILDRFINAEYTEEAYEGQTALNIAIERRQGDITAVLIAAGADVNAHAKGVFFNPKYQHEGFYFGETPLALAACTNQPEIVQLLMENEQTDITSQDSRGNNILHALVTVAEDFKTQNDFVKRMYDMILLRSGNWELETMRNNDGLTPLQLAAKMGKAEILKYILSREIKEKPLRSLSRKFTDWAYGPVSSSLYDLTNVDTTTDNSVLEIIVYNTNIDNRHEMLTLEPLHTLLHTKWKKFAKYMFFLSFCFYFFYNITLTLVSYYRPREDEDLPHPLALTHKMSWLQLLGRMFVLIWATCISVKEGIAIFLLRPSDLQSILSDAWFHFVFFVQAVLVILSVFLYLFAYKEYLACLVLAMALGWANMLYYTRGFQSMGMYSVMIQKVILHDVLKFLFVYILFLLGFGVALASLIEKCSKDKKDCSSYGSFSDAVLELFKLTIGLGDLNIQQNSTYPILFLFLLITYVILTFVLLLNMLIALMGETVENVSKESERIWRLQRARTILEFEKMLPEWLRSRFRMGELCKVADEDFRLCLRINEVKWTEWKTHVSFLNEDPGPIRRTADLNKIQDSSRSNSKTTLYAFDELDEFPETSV
Procedure: as §1
as §2, with “The” for “The pipette solution contained (in mM): 121.5 Kgluconate, 10 HEPES, 17 KCl, 9 NaCl, 1 MgCl2, 0.2 EGTA, 2 MgATP, and 0.5 NaATP, pH 7.2. The”

[5] = target: T2, rat-TRPV2 (Rattus norvegicus, UniProt Q9WUD2); assay: Calcium imaging of HEK293 cells transiently transfected with rat-TRPV2; format: cell-based; conditions: IA 100 μM
T2 construct: expressed in transfected cells; host or cells: HEK293 (transient, lipofectamine)
T2 sequence (Q9WUD2 whole entry): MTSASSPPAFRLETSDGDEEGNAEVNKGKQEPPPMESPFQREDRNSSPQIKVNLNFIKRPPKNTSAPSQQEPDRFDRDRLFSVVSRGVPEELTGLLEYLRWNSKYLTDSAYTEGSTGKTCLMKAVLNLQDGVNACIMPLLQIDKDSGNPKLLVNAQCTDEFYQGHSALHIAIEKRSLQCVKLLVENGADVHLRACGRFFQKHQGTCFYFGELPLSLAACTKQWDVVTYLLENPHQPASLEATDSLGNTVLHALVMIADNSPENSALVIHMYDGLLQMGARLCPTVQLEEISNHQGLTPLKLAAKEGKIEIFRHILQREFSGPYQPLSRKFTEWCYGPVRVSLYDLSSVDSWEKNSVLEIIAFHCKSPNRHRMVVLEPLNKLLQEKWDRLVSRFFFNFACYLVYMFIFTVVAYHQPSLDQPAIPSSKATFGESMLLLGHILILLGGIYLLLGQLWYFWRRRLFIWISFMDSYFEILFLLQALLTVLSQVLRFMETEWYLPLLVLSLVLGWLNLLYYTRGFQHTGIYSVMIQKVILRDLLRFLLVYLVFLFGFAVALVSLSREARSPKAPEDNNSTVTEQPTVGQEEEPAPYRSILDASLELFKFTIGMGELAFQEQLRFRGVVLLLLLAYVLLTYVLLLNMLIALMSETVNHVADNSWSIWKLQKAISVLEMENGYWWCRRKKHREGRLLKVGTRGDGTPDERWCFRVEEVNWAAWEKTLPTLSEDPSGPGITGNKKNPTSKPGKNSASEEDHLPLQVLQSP
Source text: All error bars indicate SEM; p values in all subfigures but c represent analysis with one-way ANOVA Bonferroni's post hoc.
HEK293 cells were transiently transfected with a rat TRPV2 plasmid using lipofectamine reagent (Invitrogen, Carlsbad, Calif.) according to manufacturer's protocol. They were then maintained in Dulbecco's modified Eagle Medium/10% fetal calf serum supplemented with Penicillin, Streptomycin, and L-glutamine. Primary keratinocytes from TRPV3-deficient and TRPV3+/+ mouse pups (day 1-4) were harvested and cultured as described previously [Chung, M. K., Lee, H., Mizuno, A., Suzuki, M. & Caterina, M. J. TRPV3 and TRPV4 mediate warmth-evoked currents in primary mouse keratinocytes. J. Biol. Chem. 279, 21569-21575 (2004)].
For single cell calcium imaging, HEK293-rat TRPV2 and HEK293-mouse TRPV3-YFP expressing cells were plated on collagen-coated glass cover slips. Cells were loaded for 60 min with 3 μM Fura-2 AM.

[6] = tested on: inflamed paw; assay: Inflamed paw model (carrageenin) in mice; format: in vivo, Sabra female mice
Procedure: IA (50 mg/kg) or vehicle were injected i.p. to Sabra female mice (5 per group) 30 min before induction of the inflammatory stimulus. Hind paws were then injected with 50 μl of saline or λ-carrageenin (4%). Ensuing inflammatory swelling was measured by increase in foot volume in a plethysmometer. […] There were highly significant effects of treatment (F=11.7, df=3.64, P<0.001). *, different from IA +saline, P<0.05; **, ***, different from vehicle+saline at P<0.01, P<0.001 respectively; #, different from vehicle+carrageenin, P<0.05.
Inflamed Paw Model. Sabra female mice were used to assess the response to IA or vehicle in an in vivo model of inflammation. Drug or vehicle was administered 30 min before induction of the inflammatory stimulus. Mice (5 per group) were injected i.p. with vehicle (isopropanol:Emulphor:saline=1:1:18) or with vehicle containing IA (50 mg/kg, i.p). Emulphor (a polyethoxylated vegetable oil) is a commercial emulsifier. Hind paws were injected with 50 μl of saline (left or right alternatively) or λ-carrageenin (4%, right or left alternatively), using 26G needles. Ensuing inflammatory swelling was measured by increase in foot volume in a plethysmometer (Ugo-Basile, Italy). Paw volume as well as redness (as a measure of erythema) and licking (as a measure of pain) were assayed before carrageenin application and every 60 min until 4 hrs.

CC(=O)OC1CC/C(C)=C/CC/C(C)=C/CC2(C(C)C)CCC1(C)O2 (stereo not shown) [IA, incensole acetate]
interaction with receptors known to be involved in psychoactivity [1]: does not interact | immobility in the Porsolt forced-swim test [2]: significantly reduced the immobility | current activation in TRPV1(+) cells [3]: does not activate currents | current activation in TRPV3(+) HEK293 cells [4]: activation of currents | calcium influx in rat-TRPV2 transfected HEK293 cells [5]: did not induce calcium influx | inflammation (inflamed paw volume) ([6]; 50 mg/kg i.p. 30 min before carrageenin, 4 hrs period): significantly reduced inflammation | other inflammatory parameters, such as redness and pain ([6]; 50 mg/kg i.p., data not shown): significantly reduced
